# Test system: Crude diglycosidase
# Assay: Examination of temperature in the conversion into isoflavone aglycons by diglycosidase using soybean materials
# Type: biochemical, Penicillium multicolor IAM7153
# Set-up: Decomposition efficiency of glycitin family in roasted soy flour / Decomposition efficiency of daidzin family in roasted soy flour / Decomposition efficiency of genistin family in soymilk / Decomposition efficiency of daidzin family in soymilk / Decomposition efficiency of glycitin family in defatted soybean / Decomposition efficiency of daidzin family in defatted soybean: concentration or dose not given beside the values
# Procedure: Into 400 μL of 20 mM acetate buffer of pH 4.0 was suspended 50 mg of each of various soybean materials (roasted soy flour (manufactured by Fuji Shokuryo K.K.), soymilk (manufactured by Gitoh Shokuhin K.K.), defatted soybean (manufactured by Fuji Seiyu K.K.), concentrated soybean protein (manufactured by Fuji Seiyu K.K.)), whereby a substrate solution was prepared. Crude diglycosidase was diluted with 20 mM acetate buffer of pH 4.0 to be the glycosidase activity of 1.88 AU/mL. Fifty μL of the enzyme solution was mixed with the substrate solution and the whole was reacted at 80, 65, 55, 45, 37, or 30° C. at the total volume of 500 μL. To the reaction mixture was added 700 μL of ethanol after 0, 1, 3, and 6 hours of the reaction. After stirring and ultrasonication, the mixture was subjected to centrifugal separation at 15,000 rpm and 4° C. for 10 minutes. The supernatant was filtered through a filter and the existence of isoflavone glycosides and aglycon isoflavones contained in the reaction mixture was detected by HLPC.
# [1] = 30° C., heat treatment of enzyme no, reaction time 0 h
# [2] = 30° C., heat treatment of enzyme no, reaction time 1 h
# [3] = 30° C., heat treatment of enzyme no, reaction time 3 h
# [4] = 30° C., heat treatment of enzyme no, reaction time 6 h
# [5] = 30° C., heat treatment of enzyme yes, reaction time 6 h
# [6] = 45° C., heat treatment of enzyme no, reaction time 0 h
# [7] = 45° C., heat treatment of enzyme no, reaction time 1 h
# [8] = 45° C., heat treatment of enzyme no, reaction time 3 h
# [9] = 45° C., heat treatment of enzyme no, reaction time 6 h
# [10] = 45° C., heat treatment of enzyme yes, reaction time 6 h
# [11] = 45 °C, heat treatment of enzyme: no, 0 h
# [12] = 45 °C, heat treatment of enzyme: no, 1 h
# [13] = 45 °C, heat treatment of enzyme: no, 3 h
# [14] = 45 °C, heat treatment of enzyme: no, 6 h
# [15] = 45 °C, heat treatment of enzyme: yes, 6 h
# [16] = 55° C., heat treatment of enzyme no, reaction time 0 h
# [17] = 55° C., heat treatment of enzyme no, reaction time 1 h
# [18] = 55° C., heat treatment of enzyme no, reaction time 3 h
# [19] = 55° C., heat treatment of enzyme no, reaction time 6 h
# [20] = 55° C., heat treatment of enzyme yes, reaction time 6 h
# [21] = 55 °C, heat treatment of enzyme: no, 0 h
# [22] = 55 °C, heat treatment of enzyme: no, 1 h
# [23] = 55 °C, heat treatment of enzyme: no, 3 h
# [24] = 55 °C, heat treatment of enzyme: no, 6 h
# [25] = 55 °C, heat treatment of enzyme: yes, 6 h
# [26] = 65° C., heat treatment of enzyme no, reaction time 0 h
# [27] = 65° C., heat treatment of enzyme no, reaction time 1 h
# [28] = 65° C., heat treatment of enzyme no, reaction time 3 h
# [29] = 65° C., heat treatment of enzyme no, reaction time 6 h
# [30] = 65° C., heat treatment of enzyme yes, reaction time 6 h
# [31] = 65 °C, heat treatment of enzyme: no, 0 h
# [32] = 65 °C, heat treatment of enzyme: no, 1 h
# [33] = 65 °C, heat treatment of enzyme: no, 3 h
# [34] = 65 °C, heat treatment of enzyme: no, 6 h
# [35] = 65 °C, heat treatment of enzyme: yes, 6 h
# [36] = 80° C., heat treatment of enzyme no, reaction time 0 h
# [37] = 80° C., heat treatment of enzyme no, reaction time 1 h
# [38] = 80° C., heat treatment of enzyme no, reaction time 3 h
# [39] = 80° C., heat treatment of enzyme no, reaction time 6 h
# [40] = 80° C., heat treatment of enzyme yes, reaction time 6 h
# [41] = 80 °C, heat treatment of enzyme: no, 0 h
# [42] = 80 °C, heat treatment of enzyme: no, 1 h
# [43] = 80 °C, heat treatment of enzyme: no, 3 h
# [44] = 80 °C, heat treatment of enzyme: no, 6 h
# [45] = 80 °C, heat treatment of enzyme: yes, 6 h
smiles,measurement,setting,value
"CC(=O)OC[C@H]1O[C@@H](Oc2ccc3c(=O)c(-c4ccc(O)cc4)coc3c2)[C@H](O)[C@@H](O)[C@@H]1O [acetyldaidzin, 6″-O-acetyldaidzin]",Decomposition efficiency of daidzin family in concentrated soybean protein,[1],44.6%
same,Decomposition efficiency of daidzin family in defatted soybean,[1],not detected
same,Decomposition efficiency of daidzin family in concentrated soybean protein,[2],44.4%
same,Decomposition efficiency of daidzin family in defatted soybean,[2],not detected
same,Decomposition efficiency of daidzin family in concentrated soybean protein,[3],43.9%
same,Decomposition efficiency of daidzin family in defatted soybean,[3],not detected
same,Decomposition efficiency of daidzin family in concentrated soybean protein,[4],43.5%
same,Decomposition efficiency of daidzin family in defatted soybean,[4],not detected
same,Decomposition efficiency of daidzin family in concentrated soybean protein,[5],42.3%
same,Decomposition efficiency of daidzin family in defatted soybean,[5],not detected
same,Decomposition efficiency of daidzin family in soymilk,"30 °C, heat treatment of enzyme: no, 0 h",not detected
same,Decomposition efficiency of daidzin family in soymilk,"30 °C, heat treatment of enzyme: no, 1 h",not detected
same,Decomposition efficiency of daidzin family in soymilk,"30 °C, heat treatment of enzyme: no, 3 h",not detected
same,Decomposition efficiency of daidzin family in soymilk,"30 °C, heat treatment of enzyme: no, 6 h",not detected
same,Decomposition efficiency of daidzin family in soymilk,"30 °C, heat treatment of enzyme: yes, 6 h",not detected
same,Decomposition efficiency of daidzin family in roasted soy flour,"35 °C, heat treatment of enzyme: no, 0 h",47.8%
same,Decomposition efficiency of daidzin family in roasted soy flour,"35 °C, heat treatment of enzyme: no, 1 h",46.9%
same,Decomposition efficiency of daidzin family in roasted soy flour,"35 °C, heat treatment of enzyme: no, 3 h",45.3%
same,Decomposition efficiency of daidzin family in roasted soy flour,"35 °C, heat treatment of enzyme: no, 6 h",39.6%
same,Decomposition efficiency of daidzin family in roasted soy flour,"35 °C, heat treatment of enzyme: yes, 6 h",43.8%
same,Decomposition efficiency of daidzin family in concentrated soybean protein,[6],44.5%
same,Decomposition efficiency of daidzin family in defatted soybean,[6],not detected
same,Decomposition efficiency of daidzin family in concentrated soybean protein,[7],44.1%
same,Decomposition efficiency of daidzin family in defatted soybean,[7],not detected
same,Decomposition efficiency of daidzin family in concentrated soybean protein,[8],41.5%
same,Decomposition efficiency of daidzin family in defatted soybean,[8],not detected
same,Decomposition efficiency of daidzin family in concentrated soybean protein,[9],42.9%
same,Decomposition efficiency of daidzin family in defatted soybean,[9],not detected
same,Decomposition efficiency of daidzin family in concentrated soybean protein,[10],0.0%
same,Decomposition efficiency of daidzin family in defatted soybean,[10],not detected
same,Decomposition efficiency of daidzin family in roasted soy flour,[11],47.7%
same,Decomposition efficiency of daidzin family in soymilk,[11],not detected
same,Decomposition efficiency of daidzin family in roasted soy flour,[12],42.9%
same,Decomposition efficiency of daidzin family in soymilk,[12],not detected
same,Decomposition efficiency of daidzin family in roasted soy flour,[13],37.9%
same,Decomposition efficiency of daidzin family in soymilk,[13],not detected
same,Decomposition efficiency of daidzin family in roasted soy flour,[14],28.5%
same,Decomposition efficiency of daidzin family in soymilk,[14],not detected
same,Decomposition efficiency of daidzin family in roasted soy flour,[15],42.5%
same,Decomposition efficiency of daidzin family in soymilk,[15],not detected
same,Decomposition efficiency of daidzin family in concentrated soybean protein,[16],44.5%
same,Decomposition efficiency of daidzin family in defatted soybean,[16],not detected
same,Decomposition efficiency of daidzin family in concentrated soybean protein,[17],44.0%
same,Decomposition efficiency of daidzin family in defatted soybean,[17],not detected
same,Decomposition efficiency of daidzin family in concentrated soybean protein,[18],40.6%
same,Decomposition efficiency of daidzin family in defatted soybean,[18],not detected
same,Decomposition efficiency of daidzin family in concentrated soybean protein,[19],37.7%
same,Decomposition efficiency of daidzin family in defatted soybean,[19],not detected
same,Decomposition efficiency of daidzin family in concentrated soybean protein,[20],42.3%
same,Decomposition efficiency of daidzin family in defatted soybean,[20],not detected
same,Decomposition efficiency of daidzin family in roasted soy flour,[21],47.5%
same,Decomposition efficiency of daidzin family in soymilk,[21],not detected
same,Decomposition efficiency of daidzin family in roasted soy flour,[22],42.8%
same,Decomposition efficiency of daidzin family in soymilk,[22],not detected
same,Decomposition efficiency of daidzin family in roasted soy flour,[23],32.5%
same,Decomposition efficiency of daidzin family in soymilk,[23],not detected
same,Decomposition efficiency of daidzin family in roasted soy flour,[24],26.7%
same,Decomposition efficiency of daidzin family in soymilk,[24],not detected
same,Decomposition efficiency of daidzin family in roasted soy flour,[25],43.6%
same,Decomposition efficiency of daidzin family in soymilk,[25],not detected
same,Decomposition efficiency of daidzin family in concentrated soybean protein,[26],44.6%
same,Decomposition efficiency of daidzin family in defatted soybean,[26],not detected
same,Decomposition efficiency of daidzin family in concentrated soybean protein,[27],44.3%
same,Decomposition efficiency of daidzin family in defatted soybean,[27],not detected
same,Decomposition efficiency of daidzin family in concentrated soybean protein,[28],42.9%
same,Decomposition efficiency of daidzin family in defatted soybean,[28],not detected
same,Decomposition efficiency of daidzin family in concentrated soybean protein,[29],41.6%
same,Decomposition efficiency of daidzin family in defatted soybean,[29],not detected
same,Decomposition efficiency of daidzin family in concentrated soybean protein,[30],43.6%
same,Decomposition efficiency of daidzin family in defatted soybean,[30],not detected
same,Decomposition efficiency of daidzin family in roasted soy flour,[31],47.8%
same,Decomposition efficiency of daidzin family in soymilk,[31],not detected
same,Decomposition efficiency of daidzin family in roasted soy flour,[32],43.7%
same,Decomposition efficiency of daidzin family in soymilk,[32],not detected
same,Decomposition efficiency of daidzin family in roasted soy flour,[33],40.2%
same,Decomposition efficiency of daidzin family in soymilk,[33],not detected
same,Decomposition efficiency of daidzin family in roasted soy flour,[34],37.8%
same,Decomposition efficiency of daidzin family in soymilk,[34],not detected
same,Decomposition efficiency of daidzin family in roasted soy flour,[35],46.1%
same,Decomposition efficiency of daidzin family in soymilk,[35],not detected
same,Decomposition efficiency of daidzin family in concentrated soybean protein,[36],44.5%
same,Decomposition efficiency of daidzin family in defatted soybean,[36],not detected
same,Decomposition efficiency of daidzin family in concentrated soybean protein,[37],45.5%
same,Decomposition efficiency of daidzin family in defatted soybean,[37],not detected
same,Decomposition efficiency of daidzin family in concentrated soybean protein,[38],44.7%
same,Decomposition efficiency of daidzin family in defatted soybean,[38],not detected
same,Decomposition efficiency of daidzin family in concentrated soybean protein,[39],43.8%
same,Decomposition efficiency of daidzin family in defatted soybean,[39],not detected
same,Decomposition efficiency of daidzin family in concentrated soybean protein,[40],42.3%
same,Decomposition efficiency of daidzin family in defatted soybean,[40],not detected
same,Decomposition efficiency of daidzin family in roasted soy flour,[41],47.7%
same,Decomposition efficiency of daidzin family in soymilk,[41],not detected
same,Decomposition efficiency of daidzin family in roasted soy flour,[42],49.1%
same,Decomposition efficiency of daidzin family in soymilk,[42],not detected
same,Decomposition efficiency of daidzin family in roasted soy flour,[43],47.9%
same,Decomposition efficiency of daidzin family in soymilk,[43],not detected
same,Decomposition efficiency of daidzin family in roasted soy flour,[44],46.7%
same,Decomposition efficiency of daidzin family in soymilk,[44],not detected
same,Decomposition efficiency of daidzin family in roasted soy flour,[45],45.0%
same,Decomposition efficiency of daidzin family in soymilk,[45],not detected

# Reference: US7118895B2, “Process for producing aglycon by using diglycosidase and flavor-improved food containing the aglycon and converting agent to be used in the process” (Amano Enzyme Inc., priority 2000, dated 2006)
